Source: ChEMBL document CHEMBL5223182, “Inhibition of HIV-1 Protease by a Boronic Acid with High Oxidative Stability” (ACS Med Chem Lett, 2023)

What was measured:
[1] = target: T1, Human immunodeficiency virus type 1 protease (Human immunodeficiency virus 1, UniProt Q72874); experiment: Inhibition of HIV-1 protease by fluorescence assay
[2] = Oxidative stability of compound in PBS by UV visible spectrophotometer analysis; format: physicochemical; conditions: buffer
[3] = Oxidative stability in sodium phosphate buffer assessed as relative rate constant; format: physicochemical
[4] = Oxidative stability in sodium phosphate buffer assessed as observed rate constant; format: physicochemical
[5] = target: T1, Human immunodeficiency virus type 1 protease; experiment: Inhibition of HIV-1 protease
Protease = Protease (Human immunodeficiency virus 1, UniProt Q9YQ12, D30N); experiment: Inhibition of HIV-1 protease D30N mutant
Protease, sequence (Q9YQ12 entry or part of it D30N): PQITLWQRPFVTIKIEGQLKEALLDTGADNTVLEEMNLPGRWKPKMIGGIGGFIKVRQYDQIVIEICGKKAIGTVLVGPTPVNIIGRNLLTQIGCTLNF

| Ki [1] [pM] | SMILES | K [2] [M⁻¹ s⁻¹] | K [3] | K [4] [M⁻¹ s⁻¹] | Ki [5] [pM] | Ki (Protease) [pM] |
| --- | --- | --- | --- | --- | --- | --- |
| 0.5 | CC(C)CN(C[C@@H](O)[C@H](Cc1ccccc1)NC(=O)O[C@H]1CO[C@H]2OCC[C@H]21)S(=O)(=O)c1ccc(B(O)O)cc1 | 2.4 | 1 | 0.12 |  |  |
|  | CC(C)CN(C[C@@H](O)[C@H](Cc1ccccc1)NC(=O)O[C@H]1CO[C@H]2OCC[C@H]21)S(=O)(=O)c1ccc2c(c1)C(=O)O[B-]2(O)O | 0.00015 | 0.021 | 0.0026 | 10 | 7 |
